The supplement of paper PMC10307832

What was measured:
Experiment in all cases: relative viability (nuclei count vs DMSO), 5 days (fraction); higher = more cells survive
UMC-11 = test system: UMC-11
Outline: (§1)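 Relative viability was taken as the ratio of nuclei in treated wells to nuclei in vehicle wells. Lung cancer cell lines in 1536-well plates received compounds by pin tool one day after seeding, either one drug alone or a fixed anchor-drug dose plus five library-drug doses (not always all listed) in √10 steps. Nuclei were counted on 4× images after 5 days of treatment, and values are medians of duplicate plates.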

NCI-H2405 = test system: NCI-H2405
Outline: as §1

LCLC-97TM1 = test system: LCLC-97TM1
Outline: as §1

NCI-H1563 = test system: NCI-H1563
Outline: as §1

NCI-H1395 = test system: NCI-H1395
Outline: as §1

EMC-BAC-2 = test system: EMC-BAC-2
Outline: as §1

NCI-H1651 = test system: NCI-H1651
Outline: as §1

LCLC-103H = test system: LCLC-103H
Outline: as §1

NCI-H2085 = test system: NCI-H2085
Outline: as §1

H3255 = test system: H3255
Outline: as §1

NCI-H1793 = test system: NCI-H1793
Outline: as §1

NCI-H2087 = test system: NCI-H2087
Outline: as §1

NCI-H1355 = test system: NCI-H1355
Outline: as §1

HCC-827 = test system: HCC-827
Outline: as §1

NCI-H1944 = test system: NCI-H1944
Outline: as §1

NCI-H520 = test system: NCI-H520
Outline: as §1

NCI-H322M = test system: NCI-H322M
Outline: as §1

EPLC-272H = test system: EPLC-272H
Outline: as §1

NCI-H650 = test system: NCI-H650
Outline: as §1

ChaGo-K-1 = test system: ChaGo-K-1
Outline: as §1

SK-MES-1 = test system: SK-MES-1
Outline: as §1

NCI-H2023 = test system: NCI-H2023
Outline: as §1

HCC-44 = test system: HCC-44
Outline: as §1

CC1(C)CCC(c2ccc(Cl)cc2)=C(CN2CCN(c3ccc(C(=O)NS(=O)(=O)c4ccc(N[C@H](CCN5CCOCC5)CSc5ccccc5)c(S(=O)(=O)C(F)(F)F)c4)cc3)CC2)C1 [Navitoclax] + CCNC(=O)c1noc(-c2cc(C(C)C)c(O)cc2O)c1-c1ccc(CN2CCOCC2)cc1 [Luminespib] (partner 0.01 µM)
relative viability (UMC-11; first compound 0.005 µM): 0.986 | relative viability (UMC-11; first compound 0.01581 µM): 1.07 | relative viability (UMC-11; first compound 0.05 µM): 1.13 | relative viability (UMC-11; first compound 0.1581 µM): 1.05 | relative viability (UMC-11; first compound 0.5 µM): 0.829 | relative viability (NCI-H2405; first compound 0.005 µM): 0.89 | relative viability (NCI-H2405; first compound 0.01581 µM): 0.727 | relative viability (NCI-H2405; first compound 0.05 µM): 0.755 | relative viability (NCI-H2405; first compound 0.1581 µM): 0.765 | relative viability (NCI-H2405; first compound 0.5 µM): 0.702 | relative viability (LCLC-97TM1; first compound 0.005 µM): 0.74 | relative viability (LCLC-97TM1; first compound 0.01581 µM): 0.8 | relative viability (LCLC-97TM1; first compound 0.05 µM): 0.733 | relative viability (LCLC-97TM1; first compound 0.1581 µM): 0.779 | relative viability (LCLC-97TM1; first compound 0.5 µM): 0.857 | relative viability (NCI-H1563; first compound 0.005 µM): 0.53 | relative viability (NCI-H1563; first compound 0.01581 µM): 0.507 | relative viability (NCI-H1563; first compound 0.05 µM): 0.485 | relative viability (NCI-H1563; first compound 0.1581 µM): 0.557 | relative viability (NCI-H1563; first compound 0.5 µM): 0.475 | relative viability (NCI-H1395; first compound 0.005 µM): 0.741 | relative viability (NCI-H1395; first compound 0.01581 µM): 0.836 | relative viability (NCI-H1395; first compound 0.05 µM): 0.714 | relative viability (NCI-H1395; first compound 0.1581 µM): 0.577 | relative viability (NCI-H1395; first compound 0.5 µM): 0.793 | relative viability (EMC-BAC-2; first compound 0.005 µM): 1.09 | relative viability (EMC-BAC-2; first compound 0.01581 µM): 1.24 | relative viability (EMC-BAC-2; first compound 0.05 µM): 1.08 | relative viability (EMC-BAC-2; first compound 0.1581 µM): 1.13 | relative viability (EMC-BAC-2; first compound 0.5 µM): 1.12 | relative viability (NCI-H1651; first compound 0.005 µM): 0.966 | relative viability (NCI-H1651; first compound 0.01581 µM): 0.971 | relative viability (NCI-H1651; first compound 0.05 µM): 0.563 | relative viability (NCI-H1651; first compound 0.1581 µM): 0.809 | relative viability (NCI-H1651; first compound 0.5 µM): 0.712 | relative viability (LCLC-103H; first compound 0.005 µM): 1.04 | relative viability (LCLC-103H; first compound 0.01581 µM): 1.03 | relative viability (LCLC-103H; first compound 0.05 µM): 1.08 | relative viability (LCLC-103H; first compound 0.1581 µM): 1.02 | relative viability (LCLC-103H; first compound 0.5 µM): 0.884 | relative viability (NCI-H2085; first compound 0.005 µM): 0.488 | relative viability (NCI-H2085; first compound 0.01581 µM): 0.538 | relative viability (NCI-H2085; first compound 0.05 µM): 0.484 | relative viability (NCI-H2085; first compound 0.1581 µM): 0.46 | relative viability (NCI-H2085; first compound 0.5 µM): 0.383 | relative viability (H3255; first compound 0.005 µM): 0.874 | relative viability (H3255; first compound 0.01581 µM): 0.877 | relative viability (H3255; first compound 0.05 µM): 0.834 | relative viability (H3255; first compound 0.1581 µM): 0.869 | relative viability (H3255; first compound 0.5 µM): 0.741 | relative viability (NCI-H1793; first compound 0.005 µM): 0.262 | relative viability (NCI-H1793; first compound 0.01581 µM): 0.177 | relative viability (NCI-H1793; first compound 0.1581 µM): 0.216 | relative viability (NCI-H1793; first compound 0.5 µM): 0.17 | relative viability (NCI-H2087; first compound 0.005 µM): 0.207 | relative viability (NCI-H2087; first compound 0.01581 µM): 0.204 | relative viability (NCI-H2087; first compound 0.1581 µM): 0.153 | relative viability (NCI-H2087; first compound 0.5 µM): 0.208 | relative viability (NCI-H1355; first compound 0.005 µM): 0.725 | relative viability (NCI-H1355; first compound 0.01581 µM): 0.845 | relative viability (NCI-H1355; first compound 0.05 µM): 0.674 | relative viability (NCI-H1355; first compound 0.1581 µM): 0.668 | relative viability (NCI-H1355; first compound 0.5 µM): 0.742 | relative viability (HCC-827; first compound 0.005 µM): 0.681 | relative viability (HCC-827; first compound 0.01581 µM): 0.699 | relative viability (HCC-827; first compound 0.05 µM): 0.49 | relative viability (HCC-827; first compound 0.1581 µM): 0.58 | relative viability (HCC-827; first compound 0.5 µM): 0.69 | relative viability (NCI-H1944; first compound 0.005 µM): 0.731 | relative viability (NCI-H1944; first compound 0.01581 µM): 0.717 | relative viability (NCI-H1944; first compound 0.05 µM): 0.553 | relative viability (NCI-H1944; first compound 0.1581 µM): 0.733 | relative viability (NCI-H1944; first compound 0.5 µM): 0.665 | relative viability (NCI-H520; first compound 0.005 µM): 0.249 | relative viability (NCI-H520; first compound 0.01581 µM): 0.234 | relative viability (NCI-H520; first compound 0.05 µM): 0.268 | relative viability (NCI-H520; first compound 0.1581 µM): 0.235 | relative viability (NCI-H520; first compound 0.5 µM): 0.229 | relative viability (NCI-H322M; first compound 0.005 µM): 0.81 | relative viability (NCI-H322M; first compound 0.01581 µM): 1.12 | relative viability (NCI-H322M; first compound 0.05 µM): 1.07 | relative viability (NCI-H322M; first compound 0.1581 µM): 0.908 | relative viability (NCI-H322M; first compound 0.5 µM): 0.908 | relative viability (EPLC-272H; first compound 0.005 µM): 0.391 | relative viability (EPLC-272H; first compound 0.05 µM): 1 | relative viability (EPLC-272H; first compound 0.1581 µM): 0.647 | relative viability (EPLC-272H; first compound 0.5 µM): 0.133 | relative viability (NCI-H650; first compound 0.005 µM): 0.794 | relative viability (NCI-H650; first compound 0.01581 µM): 0.862 | relative viability (NCI-H650; first compound 0.05 µM): 0.682 | relative viability (NCI-H650; first compound 0.1581 µM): 0.786 | relative viability (NCI-H650; first compound 0.5 µM): 0.827 | relative viability (ChaGo-K-1; first compound 0.005 µM): 0.708 | relative viability (ChaGo-K-1; first compound 0.01581 µM): 0.593 | relative viability (ChaGo-K-1; first compound 0.05 µM): 0.306 | relative viability (ChaGo-K-1; first compound 0.1581 µM): 0.578 | relative viability (ChaGo-K-1; first compound 0.5 µM): 0.636 | relative viability (SK-MES-1; first compound 0.005 µM): 0.665 | relative viability (SK-MES-1; first compound 0.01581 µM): 0.985 | relative viability (SK-MES-1; first compound 0.05 µM): 0.959 | relative viability (SK-MES-1; first compound 0.1581 µM): 0.743 | relative viability (SK-MES-1; first compound 0.5 µM): 0.856 | relative viability (NCI-H2023; first compound 0.005 µM): 0.782 | relative viability (NCI-H2023; first compound 0.01581 µM): 0.921 | relative viability (NCI-H2023; first compound 0.05 µM): 0.83 | relative viability (NCI-H2023; first compound 0.1581 µM): 0.568 | relative viability (NCI-H2023; first compound 0.5 µM): 0.594 | relative viability (HCC-44; first compound 0.05 µM): 1.33 | relative viability (HCC-44; first compound 0.5 µM): 0.823
